Converted amounts (≈) assume the structure as drawn.
Experiments:
[1] = test system: linezolid- and vancomycin-resistant Enterococcus faecalis (LVRE); assay: In vitro antibacterial activity, broth microdilution (MIC90); conditions: read-out: Antibacterial activity MIC90, LVRE
Excerpt: (§1) MIC90 measurement was made according to the broth microdilution method based on the CLSI document [Clinical and Laboratory Standards Institute Document.
(§2) The test compounds in DMSO solution were further diluted 20-fold with sterile distilled water.

[2] = test system: methicillin-resistant Staphylococcus aureus (MRSA); assay: as above; conditions: read-out: Antibacterial activity MIC90, MRSA
Excerpt: as §1, §2

| SMILES | MIC [1] [µg/mL] | MIC90 [2] [µg/mL] |
| --- | --- | --- |
| C=C(C)CN1CCN(c2ccc(N3C[C@H](CNC(C)=O)OC3=O)cc2F)C=N1 [Compound 39] | 8 (≈ 20.5 µM) | 2 (≈ 5.14 µM) |
| O=CN1CCN(c2ccc(N3C[C@H](Cn4ccnn4)OC3=O)cc2)C=N1 [Compound 99] | 32 (≈ 90.1 µM) | 2 (≈ 5.63 µM) |
| C=C(Cl)CN1CCN(c2ccc(N3C[C@H](CNC(=S)OC)OC3=O)cc2F)C=N1 [Compound 66] | 4 (≈ 9.05 µM) | 0.5 (≈ 1.13 µM) |
| COC(=S)NC[C@H]1CN(c2ccc(N3C=NN(C=O)CC3)cc2)C(=O)O1 [Compound 97] | 8 (≈ 21.2 µM) | 0.5 (≈ 1.32 µM) |
| O=C1O[C@@H](Cn2ccnn2)CN1c1ccc(N2C=NNCC2)c(F)c1 [Compound 82] | 32 (≈ 92.7 µM) | 2 (≈ 5.79 µM) |
| COC(=S)NC[C@H]1CN(c2ccc(N3C=NN(CC#N)CC3)c(F)c2)C(=O)O1 [Compound 65] | 4 (≈ 9.84 µM) | 0.5 (≈ 1.23 µM) |
| CC(=O)NC[C@H]1CN(c2ccc(N3C=NN(C4CCC4)CC3)c(F)c2)C(=O)O1 [Compound 41] | 4 (≈ 10.3 µM) | 2 (≈ 5.14 µM) |
| CC(=S)NC[C@H]1CN(c2ccc(N3C=NNCC3)c(F)c2)C(=O)O1 [Compound 74] | 2 (≈ 5.69 µM) | 0.25 (≈ 0.711 µM) |
| O=C(CO)N1CCN(c2ccc(N3C[C@H](CNc4ccon4)OC3=O)cc2F)C=N1 [Compound 87] | 8 (≈ 19.1 µM) | 0.5 (≈ 1.2 µM) |
| C#CCN1CCN(c2ccc(N3C[C@H](CNC(C)=O)OC3=O)cc2F)C=N1 [Compound 5] | 8 (≈ 21.4 µM) | 1 (≈ 2.68 µM) |
| C=CCN1CCN(c2ccc(N3C[C@H](CNC(=S)OC)OC3=O)cc2F)C=N1 [Compound 62] | 2 (≈ 4.91 µM) | 0.0625 (≈ 0.153 µM) |
| COC(=S)NC[C@H]1CN(c2ccc(N3C=NN(C)CC3)c(F)c2)C(=O)O1 [Compound 60] | 2 (≈ 5.24 µM) | 0.25 (≈ 0.655 µM) |
| CN1CCN(c2c(F)cc(N3C[C@H](CNc4ccon4)OC3=O)cc2F)C=N1 [Compound 106] | 16 (≈ 40.8 µM) | 0.5 (≈ 1.27 µM) |
| CC(=O)NC[C@H]1CN(c2ccc(N3C=NN(C)CC3)c(F)c2)C(=O)O1 [Compound 3] | 8 (≈ 22.9 µM) | 2 (≈ 5.72 µM) |
| CNC(=S)N1CCN(c2ccc(N3C[C@H](CNC(C)=O)OC3=O)cc2F)C=N1 [Compound 19] | 4 (≈ 9.79 µM) | 0.5 (≈ 1.22 µM) |
| O=C1O[C@@H](CNc2ccon2)CN1c1ccc(N2C=NNCC2)c(F)c1 [Compound 86] | 8 (≈ 22.2 µM) | 0.5 (≈ 1.39 µM) |

| SMILES | MIC [1] [µg/mL] | MIC90 [2] [µg/mL] |
| --- | --- | --- |
| CCOC(=O)CN1CCN(c2ccc(N3C[C@H](CNC(=S)OC)OC3=O)cc2F)C=N1 [Compound 69] | 8 (≈ 17.6 µM) | 2 (≈ 4.41 µM) |
| O=C1O[C@@H](CO)CN1c1ccc(N2C=NNCC2)c(F)c1 [Compound 93] | 32 (≈ 109 µM) | 1 (≈ 3.4 µM) |
| C#CCN1CCN(c2ccc(N3C[C@H](CNC(=S)C(F)F)OC3=O)cc2F)C=N1 [Compound 78] | 4 (≈ 9.4 µM) | 0.5 (≈ 1.18 µM) |
| CC(=O)NC[C@H]1CN(c2ccc(N3C=NN(C=O)CC3)cc2)C(=O)O1 [Compound 95] | 16 (≈ 46.3 µM) | 1 (≈ 2.9 µM) |
| O=CN1CCN(c2ccc(N3C[C@H](CNc4ccon4)OC3=O)cc2)C=N1 [Compound 100] | 32 (≈ 86.4 µM) | 0.5 (≈ 1.35 µM) |
| CN1CCN(c2c(F)cc(N3C[C@H](Cn4ccnn4)OC3=O)cc2F)C=N1 [Compound 104] | 32 (≈ 84.8 µM) | 2 (≈ 5.3 µM) |
| O=CN1CCN(c2c(F)cc(N3C[C@H](CNc4ccon4)OC3=O)cc2F)C=N1 [Compound 105] | 16 (≈ 39.4 µM) | 0.5 (≈ 1.23 µM) |
| CCOC(=O)CN1CCN(c2ccc(N3C[C@H](CNC(C)=O)OC3=O)cc2F)C=N1 [Compound 24] | 16 (≈ 38 µM) | 2 (≈ 4.75 µM) |
| CC(=O)NC[C@H]1CN(c2ccc(N3C=NN(C(C)=O)CC3)c(F)c2)C(=O)O1 [Compound 10] | 32 (≈ 84.8 µM) | 4 (≈ 10.6 µM) |
| C#CCN1CCN(c2ccc(N3C[C@H](CNc4ccon4)OC3=O)cc2F)C=N1 [Compound 91] | 8 (≈ 20.1 µM) | 0.5 (≈ 1.26 µM) |
| C#CCN1CCN(c2ccc(N3C[C@H](Cn4ccnn4)OC3=O)cc2F)C=N1 [Compound 84] | 16 (≈ 41.7 µM) | 0.5 (≈ 1.3 µM) |
| CCN1CCN(c2ccc(N3C[C@H](CNC(=O)C(F)F)OC3=O)cc2F)C=N1 [Compound 48] | 16 (≈ 40.1 µM) | 4 (≈ 10 µM) |
| CC(=O)CN1CCN(c2ccc(N3C[C@H](CNC(C)=O)OC3=O)cc2F)C=N1 [Compound 37] | 8 (≈ 20.4 µM) | 2 (≈ 5.11 µM) |
| CC(=O)NC[C@H]1CN(c2ccc(N3C=NN(CC#N)CC3)c(F)c2)C(=O)O1 [Compound 7] | 8 (≈ 21.4 µM) | 1 (≈ 2.67 µM) |
| C#CCN1CCN(c2ccc(N3C[C@H](CNC(=S)OC)OC3=O)cc2F)C=N1 [Compound 63] | 4 (≈ 9.87 µM) | 0.5 (≈ 1.23 µM) |
| CCN1CCN(c2ccc(N3C[C@H](CNC(C)=O)OC3=O)cc2F)C=N1 [Compound 6] | 8 (≈ 22 µM) | 2 (≈ 5.5 µM) |

Further lines, results first:

| MIC [1] [µg/mL] | MIC90 [2] [µg/mL] | SMILES |
| --- | --- | --- |
| 4 (≈ 10.2 µM) | 0.5 (≈ 1.27 µM) | CC(=O)NC[C@H]1CN(c2ccc(N3C=NN(C(C)=S)CC3)c(F)c2)C(=O)O1 [Compound 34] |
| 8 (≈ 18.9 µM) | 4 (≈ 9.47 µM) | CC(=O)NC[C@H]1CN(c2ccc(N3C=NN(C(=O)NCCO)CC3)c(F)c2)C(=O)O1 [Compound 15] |
| 8 (≈ 18.6 µM) | 2 (≈ 4.66 µM) | O=C(NC[C@H]1CN(c2ccc(N3C=NN(C(=O)CO)CC3)c(F)c2)C(=O)O1)C(F)F [Compound 47] |
| 8 (≈ 22.2 µM) | 0.5 (≈ 1.39 µM) | CC(=O)NC[C@H]1CN(c2ccc(N3C=NN(C#N)CC3)c(F)c2)C(=O)O1 [Compound 9] |
| 8 (≈ 19.6 µM) | 2 (≈ 4.91 µM) | CCOC(=O)N1CCN(c2ccc(N3C[C@H](CNC(C)=O)OC3=O)cc2F)C=N1 [Compound 35] |
| 64 (≈ 163 µM) | 8 (≈ 20.4 µM) | CCNC(=O)NC[C@H]1CN(c2ccc(N3C=NN(C=O)CC3)c(F)c2)C(=O)O1 [Compound 44] |
| 16 (≈ 39.6 µM) | 2 (≈ 4.95 µM) | O=CN1CCN(c2ccc(N3C[C@H](CNc4nccs4)OC3=O)cc2F)C=N1 [Compound 80] |
| 4 (≈ 9.04 µM) | 2 (≈ 4.52 µM) | CC(=O)NC[C@H]1CN(c2ccc(N3C=NN(S(=O)(=O)N(C)C)CC3)c(F)c2)C(=O)O1 [Compound 21] |
| 8 (≈ 19.1 µM) | 2 (≈ 4.77 µM) | CC#CCN1CCN(c2ccc(N3C[C@H](CNC(=S)OC)OC3=O)cc2F)C=N1 [Compound 64] |
| 16 (≈ 39.7 µM) | 4 (≈ 9.92 µM) | CC(=O)NC[C@H]1CN(c2ccc(N3C=NN(C(=O)C4CC4)CC3)c(F)c2)C(=O)O1 [Compound 13] |
| 32 (≈ 81.3 µM) | 2 (≈ 5.08 µM) | CCOC(=O)NC[C@H]1CN(c2ccc(N3C=NN(C=O)CC3)c(F)c2)C(=O)O1 [Compound 43] |
| 16 (≈ 41.2 µM) | 0.5 (≈ 1.29 µM) | O=CN1CCN(c2ccc(N3C[C@H](CNc4ccon4)OC3=O)cc2F)C=N1 [Compound 85] |
| 16 (≈ 42.9 µM) | 1 (≈ 2.68 µM) | O=CN1CCN(c2ccc(N3C[C@H](Cn4ccnn4)OC3=O)cc2F)C=N1 [Compound 81] |
| 64 (≈ 169 µM) | 4 (≈ 10.5 µM) | CC(=O)NC[C@H]1CN(c2ccc(N3C=NN(CCO)CC3)c(F)c2)C(=O)O1 [Compound 27] |
| 8 (≈ 19.9 µM) | 1 (≈ 2.49 µM) | CC(=O)NC[C@H]1CN(c2ccc(N3C=NN(C(=O)CC#N)CC3)c(F)c2)C(=O)O1 [Compound 11] |
| 4 (≈ 9.49 µM) | 0.5 (≈ 1.19 µM) | COC(=S)NC[C@H]1CN(c2ccc(N3C=NN(CC4CC4)CC3)c(F)c2)C(=O)O1 [Compound 67] |
| 8 (≈ 19.6 µM) | 4 (≈ 9.79 µM) | CCNC(=S)NC[C@H]1CN(c2ccc(N3C=NN(C=O)CC3)c(F)c2)C(=O)O1 [Compound 56] |
| > 64 | 8 (≈ 20.5 µM) | O=CN1CCN(c2ccc(N3C[C@H](COc4ccon4)OC3=O)cc2F)C=N1 [Compound 79] |

| MIC [1] [µg/mL] | MIC90 [2] [µg/mL] | SMILES |
| --- | --- | --- |
| 16 (≈ 38.3 µM) | 4 (≈ 9.58 µM) | CC(=O)NC[C@H]1CN(c2ccc(N3C=NN(CC(F)(F)F)CC3)c(F)c2)C(=O)O1 [Compound 8] |
| 8 (≈ 20.3 µM) | 4 (≈ 10.2 µM) | CC(=O)NC[C@H]1CN(c2ccc(N3C=NN(CC(C)O)CC3)c(F)c2)C(=O)O1 (some centres unmarked) [Compound 38] |
| 4 (≈ 10.9 µM) | 0.25 (≈ 0.68 µM) | COC(=S)NC[C@H]1CN(c2ccc(N3C=NNCC3)c(F)c2)C(=O)O1 [Compound 58] |
| > 128 | 128 (≈ 274 µM) | CC(=O)NC[C@H]1CN(c2ccc(N3C=NN(C(=O)N(CCO)CCO)CC3)c(F)c2)C(=O)O1 [Compound 16] |
| 2 (≈ 5.43 µM) | 0.25 (≈ 0.679 µM) | COC(=S)NC[C@H]1CN(c2ccc(N3C=NOCC3)c(F)c2)C(=O)O1 [Compound 57] |
| 8 (≈ 21.1 µM) | 2 (≈ 5.29 µM) | CC(=O)NC[C@H]1CN(c2ccc(N3C=NN(C(N)=O)CC3)c(F)c2)C(=O)O1 [Compound 14] |
| 4 (≈ 9.63 µM) | 0.5 (≈ 1.2 µM) | O=CN1CCN(c2ccc(N3C[C@H](CNC(=S)C(F)F)OC3=O)cc2F)C=N1 [Compound 77] |
| 8 (≈ 22 µM) | 1 (≈ 2.75 µM) | CC(=O)NC[C@H]1CN(c2ccc(N3C=NN(C=O)CC3)c(F)c2)C(=O)O1 [Compound 1] |
| 8 (≈ 19.7 µM) | 2 (≈ 4.93 µM) | CC(=O)NC[C@H]1CN(c2ccc(N3C=NN(C(=O)C(C)=O)CC3)c(F)c2)C(=O)O1 [Compound 36] |
| 32 (≈ 72.8 µM) | 8 (≈ 18.2 µM) | CC(=O)NC[C@H]1CN(c2ccc(N3C=NN(C(=S)OCCO)CC3)c(F)c2)C(=O)O1 [Compound 32] |
| 64 (≈ 199 µM) | 1 (≈ 3.1 µM) | O=CN1CCN(c2ccc(N3C[C@H](CO)OC3=O)cc2F)C=N1 [Compound 92] |
| 16 (≈ 47.6 µM) | 2 (≈ 5.95 µM) | CC(=O)NC[C@H]1CN(c2ccc(N3C=NOCC3)c(F)c2)C(=O)O1 [Compound 28] |
| 8 (≈ 18.9 µM) | 2 (≈ 4.72 µM) | CC(C)OC(=S)NC[C@H]1CN(c2ccc(N3C=NN(C=O)CC3)c(F)c2)C(=O)O1 [Compound 55] |
| 32 (≈ 81.6 µM) | 4 (≈ 10.2 µM) | CC(=O)NC[C@H]1CN(c2ccc(N3C=NN(CC(N)=O)CC3)c(F)c2)C(=O)O1 [Compound 25] |
| 4 (≈ 8.82 µM) | 0.5 (≈ 1.1 µM) | COC(=S)NC[C@H]1CN(c2ccc(N3C=NN(CCOC(C)=O)CC3)c(F)c2)C(=O)O1 [Compound 71] |
| 8 (≈ 18.2 µM) | 2 (≈ 4.56 µM) | CC(=O)NC[C@H]1CN(c2ccc(N3C=NN(C(=S)NCCO)CC3)c(F)c2)C(=O)O1 [Compound 33] |
| 2 (≈ 5.27 µM) | 0.0625 (≈ 0.165 µM) | CC(=S)NC[C@H]1CN(c2ccc(N3C=NN(C=O)CC3)c(F)c2)C(=O)O1 [Compound 73] |

Reference: patent US8242113B2, “Oxazolidinone derivatives with cyclic amidoxime or cyclic amidrazone pharmaceutical compositions thereof” (Legochem Biosciences, Inc., priority 2008, dated 2012)
